Assay results from patent US4826814A, “Tripeptide derivatives” (Dainippon Pharmaceutical Co., Ltd., priority 1986, dated 1989).
Starred links: 1 amine or outer side, 2 acyl side, 3 side chain; linkers in the order of their positions; H or OH if unused. Non-standard residues stand in square brackets, D forms with d. Residues, ends and D or L forms follow the SMILES beside them. *: point of attachment. d(γGlu) = O=C(O)[C@@H](CCC(=O)[*:2])N[*:1]; Oic = O=C(O)[C@@H]1C[C@@H]2CCCC[C@@H]2N1; Nicotinoyl = O=C(c1cccnc1)*; Cbz = O=C(OCc1ccccc1)*

Target: T1, ACE preparation (rabbit lung) (Oryctolagus cuniculus, UniProt P12822)
T1 construct: an ACE preparation (rabbit lung); from tissue; host or cells: rabbit lung
T1 sequence (P12822 34-1310): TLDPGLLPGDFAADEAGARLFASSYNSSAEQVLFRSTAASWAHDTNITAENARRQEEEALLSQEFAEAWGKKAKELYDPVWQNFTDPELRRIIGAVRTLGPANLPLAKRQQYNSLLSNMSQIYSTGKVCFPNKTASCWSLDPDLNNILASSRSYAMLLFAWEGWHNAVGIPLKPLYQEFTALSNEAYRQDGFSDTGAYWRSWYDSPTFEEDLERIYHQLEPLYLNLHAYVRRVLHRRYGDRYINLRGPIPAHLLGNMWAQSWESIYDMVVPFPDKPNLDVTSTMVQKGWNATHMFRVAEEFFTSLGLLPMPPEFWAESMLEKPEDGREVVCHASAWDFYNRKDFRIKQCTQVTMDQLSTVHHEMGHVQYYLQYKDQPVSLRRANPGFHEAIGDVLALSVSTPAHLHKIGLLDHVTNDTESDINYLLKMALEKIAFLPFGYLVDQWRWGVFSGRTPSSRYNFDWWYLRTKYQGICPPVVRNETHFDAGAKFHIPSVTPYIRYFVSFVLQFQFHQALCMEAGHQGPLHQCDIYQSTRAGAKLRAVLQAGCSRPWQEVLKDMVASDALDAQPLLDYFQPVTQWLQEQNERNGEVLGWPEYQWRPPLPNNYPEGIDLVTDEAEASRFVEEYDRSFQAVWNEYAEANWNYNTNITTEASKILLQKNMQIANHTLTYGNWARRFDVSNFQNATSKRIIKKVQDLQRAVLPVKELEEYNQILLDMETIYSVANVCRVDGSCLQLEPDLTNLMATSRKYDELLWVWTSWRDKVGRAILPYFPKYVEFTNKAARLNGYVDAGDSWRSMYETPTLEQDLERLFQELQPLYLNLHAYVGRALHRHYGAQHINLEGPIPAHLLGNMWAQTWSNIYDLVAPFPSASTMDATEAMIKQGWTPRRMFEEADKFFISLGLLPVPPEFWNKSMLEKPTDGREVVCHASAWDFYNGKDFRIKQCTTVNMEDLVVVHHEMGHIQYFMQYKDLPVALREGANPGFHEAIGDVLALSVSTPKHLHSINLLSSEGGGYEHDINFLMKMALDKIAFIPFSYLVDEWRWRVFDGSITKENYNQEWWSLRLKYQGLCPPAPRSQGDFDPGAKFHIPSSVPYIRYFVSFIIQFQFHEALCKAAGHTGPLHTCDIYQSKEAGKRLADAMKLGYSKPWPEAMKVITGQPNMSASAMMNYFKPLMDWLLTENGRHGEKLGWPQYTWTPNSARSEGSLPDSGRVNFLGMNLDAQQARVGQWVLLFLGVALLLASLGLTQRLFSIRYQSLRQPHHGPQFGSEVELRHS
Experiment: In vitro ACE inhibitory activity (hippuryl-L-histidyl-L-leucine substrate)
Format: biochemical
Conditions: 37° C., 30 minutes, pH 8.3
Description: The assay medium contained an ACE preparation (rabbit lung), synthetic substrate (hippuryl-L-histidyl-L-leucine 5 mM), NaCl (300 mM) and phosphate buffer (100 mM, pH 8.3). It was mixed to a final volume of 0.300 ml and incubated at 37° C. for 30 minutes in the presence or absence of test compounds. After the reaction was terminated by adding 300 μl of 1N HCl, hippuric acid formed was extracted with 2 volume of ethyl acetate. After ethyl acetate was evaporated and distilled water was added, the hippuric acid was determined from its absorbance at 228 nm by spectrophotometer (Hitachi 100-41).
The degree of ACE inhibition was calculated from activities with and without test compounds. The IC50 value (molar concentration required for the 50% inhibition of ACE activity) was obtained from a dose-inhibition curve.

| SMILES | IC50 |
| --- | --- |
| NCCCC[C@H](NC(=O)c1ccc(Cl)cc1)C(=O)N[C@H](CCC(=O)N1[C@H](C(=O)O)C[C@@H]2CCCC[C@@H]21)C(=O)O [Example 55, (2S,3aS,7aS)-1-[N^2-(4-Chlorobenzoyl)-L-lysyl-gamma-D-glutamyl]octahydro-1H-indole-2-carboxylic acid] | 6.2 nM |
| NCCCC[C@H](NC(=O)[C@@H]1Cc2ccccc2N1)C(=O)N[C@H](CCC(=O)N1[C@H](C(=O)O)C[C@@H]2CCCC[C@@H]21)C(=O)O [Example 56, (2S,3aS,7aS)-1-[N^2-(Indoline-2(S)-carbonyl)-L-lysyl-gamma-D-glutamyl]octahydro-1H-indole-2-carboxylic acid] | 8.2 nM |
| NCCCC[C@H](NC(=O)c1cnccn1)C(=O)N[C@H](CCC(=O)N1c2ccccc2C[C@H]1C(=O)O)C(=O)O [Example 68, 1-(N^2 -Pyrazinoyl-L-lysyl-gamma-D-glutamyl)indoline-2(S)-carboxylic acid] | 16 nM |
| NCCCC[C@H](NC(=O)c1cccnc1)C(=O)N[C@H](CCC(=O)N1[C@H](C(=O)O)C[C@@H]2CCCC[C@@H]21)C(=O)O [Example 69, Monosodium (2S,3aS,7aS)-1-(N^2-nicotinoyl-L-lysyl-gamma-D-glutamyl)octahydro-1H-indole-2-carboxylate] (Nicotinoyl-Lys-[d(γGlu)]-[Oic]-OH) | 7.8 nM |
| COc1ccccc1C(=O)N[C@@H](CCCCN)C(=O)N[C@H](CCC(=O)N1[C@H](C(=O)O)C[C@@H]2CCCC[C@@H]21)C(=O)O [Example 70, (2S,3aS,7aS)-1-[N^2-(2-Methoxybenzoyl)-L-lysyl-gamma-D-glutamyl]octahydro-1H-indole-2-carboxylic acid] | 5.4 nM |
| NCCCC[C@H](NC(=O)C1CCCCC1)C(=O)N[C@H](CCC(=O)N1c2ccccc2C[C@H]1C(=O)O)C(=O)O [Example 71, 1-(N^2 -Cyclohexylcarbonyl-L-lysyl-gamma-D-glutamyl)indoline-2(S)-carboxylic acid] | 27 nM |
| NCCCC[C@H](NC(=O)OCc1ccc2c(c1)OCO2)C(=O)N[C@H](CCC(=O)N1c2ccccc2C[C@H]1C(=O)O)C(=O)O [Example 74, 1-[N^2-(3,4-Methylenedioxybenzyloxycarbonyl)-L-lysyl-gamma-D-glutamyl]indoline-2(S)-carboxylic acid] | 6.6 nM |

Tested on: renal hypertensive rats
Experiment: Antihypertensive activity after single oral administration in two-kidney Goldblatt type renal hypertensive rats (tail-cuff blood pressure)
Format: in vivo, rat
Conditions: blood pressure, renal hypertensive rats, single oral administration, dose of 10 mg/kg, 9 hours
Text: Male Sprague Dawley rats (5 weeks old) were subjected to constriction of the left renal artery with a silver clip (internal diameter: 0.22 mm) under light ether anesthesia. The right kidney and renal artery were left intact. About 6-10 weeks after clipping, rats showing a blood pressure above 180 mmHg were used. These treated rats are named two-kidney Goldblatt type renal hypertensive rats and considered as a typical model of reninangiotensin dependent hypertension.
The blood pressure was measured by a tail-cuff method using a programmed electro-sphygmomanometer (PE-300, Narco Biosystem, U. S. A.) after warming at 38° C. for 10 minutes in heating box.
The antihypertensive activity of test compounds was evaluated after single oral administration in renal hypertensive rats (3-5 rats/group).

| SMILES | Charge in pressure at 9 hours administration |
| --- | --- |
| NCCCC[C@H](NC(=O)OCc1ccccc1)C(=O)N[C@H](CCC(=O)N1[C@H](C(=O)O)C[C@@H]2CCCC[C@@H]21)C(=O)O [Example 11, (2S,3aS,7aS)-1-(N^2 -Benzyloxycarboxyl-L-lysyl-gamma-D-glutamyl)octahydro-1H-indole-2-carboxylic acid] (Cbz-Lys-[d(γGlu)]-[Oic]-OH) | -37 |
| NCCCC[C@H](NC(=O)C1CCC1)C(=O)N[C@H](CCC(=O)N1[C@H](C(=O)O)C[C@@H]2CCCC[C@@H]21)C(=O)O [Example 18, (2S,3aS,7aS)-1-(N^2 -Cyclobutanecarbonyl-L-lysl-gamma-D-glutamyl)octahydro-1H-indole-2-carboxylic acid] | -42 |
| NCCCC[C@H](NC(=O)c1ccncc1)C(=O)N[C@H](CCC(=O)N1[C@H](C(=O)O)C[C@@H]2CCCC[C@@H]21)C(=O)O [Example 29, (2S,3aS,7aS)-1-(N^2 -Isonicotinoyl-L-lysyl-gamma-D-glutamyl)octoahydro-1H-indole-2-carboxylic acid] | -38 |
| NCCCC[C@H](NC(=O)OC1CCCC1)C(=O)N[C@H](CCC(=O)N1[C@H](C(=O)O)C[C@@H]2CCCC[C@@H]21)C(=O)O [Example 30, (2S,3aS,7aS)-1-(N^2 -Cyclopentyloxycarbonyl-L-lysyl-gamma-D-glytamyl)octahydro-1H-indole-2-carboxylic acid] | -38 |
| NCCCC[C@H](NC(=O)OCCc1ccccn1)C(=O)N[C@H](CCC(=O)N1c2ccccc2C[C@H]1C(=O)O)C(=O)O [Example 38, 1-[N^2-(2-Pyridineethoxycarbonyl)-L-lysyl-gamma-D-glutamyl]indoline-2(S)-carboxylic acid] | -27 |
